What is called IC50 is the concentration that inhibits the measured activity by half.

human Factor XIIa, sequence (P00748 373-615): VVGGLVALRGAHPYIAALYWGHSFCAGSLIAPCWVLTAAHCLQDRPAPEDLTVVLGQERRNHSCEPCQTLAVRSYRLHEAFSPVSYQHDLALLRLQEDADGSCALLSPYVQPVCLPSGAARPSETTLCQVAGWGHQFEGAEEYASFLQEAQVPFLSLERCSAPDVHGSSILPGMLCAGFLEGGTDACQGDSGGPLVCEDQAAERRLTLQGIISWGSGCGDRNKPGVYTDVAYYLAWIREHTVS

This test addresses human Factor XIIa (Homo sapiens (Human), UniProt P00748). Nature of the test: Factor XIIa Assay. The format is biochemical. The following applies: purified human Factor XIIa 500 pM; substrate n-Acetyl-Lys-Pro-Arg-AFC 100 μM; pH 7.4; read-out: FXIIa IC50. In short, it runs like this: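 Purified human FXIIa at 500 pM final with 100 μM n-Acetyl-Lys-Pro-Arg-AFC in 50 mM HEPES, 150 mM NaCl, 5 mM CaCl2, 0.1% PEG 8000, pH 7.4, at room temperature or 37° C. Initial fluorogenic hydrolysis rates measured after enzyme–inhibitor equilibration; IC50 taken where Vi=Vo/2.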
Turning to `C[C@H]1N=C(N2CCN(C(=O)[C@@H](CCCCNS(C)(=O)=O)NC3CCCCC3)[C@H](C(=O)NCc3cccs3)C2)O[C@H]1c1ccccc1` [Example 151, (2S)-1-[N^2-cyclohexyl-N^6-(methylsulfonyl)-D-lysyl]-4-[(4R,5S)-4-methyl-5-phenyl-4,5-dihydro-1,3-oxazol-2-yl]-N-(thiophen-2-ylmethyl)piperazine-2-carboxamide], the IC50 came to 14.2 nM. The figure for `C[C@@H]1N=C(N2CCN(C(=O)[C@@H](CCCCN3CCCCC3)NC3CCC(CN)CC3)[C@H](C(=O)NCc3cc4cnccc4s3)C2)O[C@H]1c1ccccc1` (stereo partly drawn) [Example 174, (2S)-1-{N-[4-(aminomethyl)cyclohexyl]-6-piperidin-1-yl-D-norleucyl}-4-[(4S,5S)-4-methyl-5-phenyl-4,5-dihydro-1,3-oxazol-2-yl]-N-(thieno[3,2-c]pyridin-2-ylmethyl)piperazine-2-carboxamide] is 3 nM.

`CN(C)CCCC[C@@H](NC1CCCCC1)C(=O)N1CCN(C(=O)Oc2ccccc2Cl)C[C@H]1C(=O)NCc1cccs1` [Example 73, 2-chlorophenyl (3S)-4-(N^2-cyclohexyl-N^6,N^6-dimethyl-D-lysyl)-3-[(thiophen-2-ylmethyl)carbamoyl]piperazine-1-carboxylate]: the IC50 was determined as 1.1 nM. To `CC1(C)N=C(N2CCN(C(=O)[C@@H](CC3CCCCC3)NC3CCCCC3)[C@H](C(=O)NCc3cccs3)C2)OC1c1ccccc1` (stereo partly drawn) [Example 137, (2S)-1-(N,3-dicyclohexyl-D-alanyl)-4-(4,4-dimethyl-5-phenyl-4,5-dihydro-1,3-oxazol-2-yl)-N-(thiophen-2-ylmethyl)piperazine-2-carboxamide] belongs 23.2 nM. Regarding `CCS(=O)(=O)N1CCC([C@@H](NC2CCCCC2)C(=O)N2CCN(C(=O)Oc3ccccc3Cl)C[C@H]2C(=O)NCc2cccs2)CC1` [Example 61, 2-chlorophenyl (3S)-4-{(2R)-2-(cyclohexylamino)-2-[1-(ethylsulfonyl)piperidin-4-yl]acetyl}-3-[(thiophen-2-ylmethyl)carbamoyl]piperazine-1-carboxylate], the IC50 turned out to be 4.2 nM. Consider `C[C@H]1N=C(N2CCN(C(=O)[C@@H](CCCCN(C)C)NC3CCC4(CC3)CCN(Cc3ccccc3)C4)[C@H](C(=O)NCc3cccs3)C2)O[C@@H]1c1ccccc1` (stereo partly drawn) [Example 143, (2S)-1[N^2-(2-benzyl-2-azaspiro[4.5]dec-8-yl)-N^6,N^6-dimethyl-D-lysyl]-4-[(4R,5R)-4-methyl-5-phenyl-4,5-dihydro-1,3-oxazol-2-yl]-N-(thiophen-2-ylmethyl)piperazine-2-carboxamide], for which the IC50 came to 9.4 nM. Consider `COc1cc(CNC(=O)[C@@H]2CN(C(=O)Oc3cccc4ccccc34)CCN2C(=O)[C@@H](CC2CCCCC2)NC2CCCCC2)ccc1CN` [Example 24, naphthalen-1-yl (3S)-3-{[4-(aminomethyl)-3-methoxybenzyl]carbamoyl}-4-(N,3-dicyclohexyl-D-alanyl)piperazine-1-carboxylate], for which the IC50 turned out to be 1.6 nM. Take `CC(C)N[C@H](CCCCN1CCCCC1)C(=O)N1CCN(C2=N[C@@H](C)[C@H](c3cccc(Br)c3)O2)C[C@H]1C(=O)NCc1cccc(Cl)c1` [Example 168, (2S)-4-[(4S,5S)-5-(3-bromophenyl)-4-methyl-4,5-dihydro-1,3-oxazol-2-yl]-N-(3-chlorobenzyl)-1-[N-(1-methylethyl)-6-piperidin-1-yl-D-norleucyl]piperazine-2-carboxamide]: the IC50 was 8.2 nM. To `CC(C)N[C@H](CCCCN1CCCCC1)C(=O)N1CCN(C2=N[C@@H](C)[C@H](c3ccccc3)O2)C[C@H]1C(=O)NCc1ccc(CN)c(Cl)c1` [Example 179, (2S)-N-[4-(aminomethyl)-3-chlorobenzyl]-1-[N-(1-methylethyl)-6-piperidin-1-yl-D-norleucyl]-4-[(4S,5S)-4-methyl-5-phenyl-4,5-dihydro-1,3-oxazol-2-yl]piperazine-2-carboxamide] belongs 1.7 nM; to `CN(C)CCCC[C@@H](NC1CCCCC1)C(=O)N1CCN(C(=O)CC2CCCC2)C[C@H]1C(=O)NCc1cccs1` [Example 99, (2S)-1-(N^2-cyclohexyl-N^6,N^6-dimethyl-D-lysyl)-4-(cyclopentylacetyl)-N-(thiophen-2-ylmethyl)piperazine-2-carboxamide], 29.7 nM.

For the compound `C[C@@H]1N=C(N2CCN(C(=O)[C@H](NC3CCC(C(N)=O)CC3)[C@H]3CC[C@H](N4CCCCC4)CC3)[C@H](C(=O)NCc3cccs3)C2)O[C@H]1c1ccccc1` (stereo partly drawn) [Example 119, (2S)-1-[(2R)-2-[(4-carbamoylcyclohexyl)amino]-2-(trans-4-piperidin-1-ylcyclohexyl)acetyl]-4-[(4S,5S)-4-methyl-5-phenyl-4,5-dihydro-1,3-oxazol-2-yl]-N-(thiophen-2-ylmethyl)piperazine-2-carboxamide], the IC50 was found to be 1.5 nM. The figure for `COc1cc(CNC(=O)[C@@H]2CN(C(=O)Oc3ccccc3Cl)CCN2C(=O)[C@@H](CCCCNS(C)(=O)=O)NC2CCC3(CC2)CCN(Cc2ccccc2)C3)ccc1CN` (stereo partly drawn) [Example 85, 2-chlorophenyl (3S)-3-{[4-(aminomethyl)-3-methoxybenzyl]carbamoyl}-4-[N^2-(2-benzyl-2-azaspiro[4.5]dec-8-yl)-N^6-(methylsulfonyl)-D-lysyl]piperazine-1-carboxylate] is 8.3 nM.

As for `CC(C)N[C@H](CCCCN1CCCCC1)C(=O)N1CCN(C2=N[C@@H](C)[C@H](c3ccccc3)O2)C[C@H]1C(=O)NCc1cc2cnccc2s1` [Example 173, (2S)-1-[N-(1-methylethyl)-6-piperidin-1-yl-D-norleucyl]-4-[(4S,5S)-4-methyl-5-phenyl-4,5-dihydro-1,3-oxazol-2-yl]-N-(thieno[3,2-c]pyridin-2-ylmethyl)piperazine-2-carboxamide], the IC50 was 3.9 nM. The figure for `O=C(NCc1cccs1)[C@@H]1CN(C(=O)Oc2ccccc2Cl)CCN1C(=O)[C@H](NC1CCCCC1)C1CCN(S(=O)(=O)C2CC2)CC1` [Example 62, 2-chlorophenyl (3S)-4-{(2R)-2-(cyclohexylamino)-2-[1-(cyclopropylsulfonyl)piperidin-4-yl]acetyl}-3-[(thiophen-2-ylmethyl)carbamoyl]piperazine-1-carboxylate] is 1.7 nM; for `Cc1ccc(OC(=O)N2CCN(C(=O)[C@@H](CCCCNC(C)C)NC(C)C)[C@H](C(=O)NCc3cccs3)C2)c(Cl)c1C` [Example 103, 2-chloro-3,4-dimethylphenyl (3S)-4-[N^2,N^6-bis(1-methylethyl)-D-lysyl]-3-[(thiophen-2-ylmethyl)carbamoyl]piperazine-1-carboxylate] it is 1.4 nM; for `C[C@@H]1N=C(N2CCN(C(=O)[C@H](N)CCCCN3CCCCC3)[C@H](C(=O)NCc3cc4cnccc4s3)C2)O[C@H]1c1ccccc1` [Example 163, (2S)-4-[(4S,5S)-4-methyl-5-phenyl-4,5-dihydro-1,3-oxazol-2-yl]-1-(6-piperidin-1-yl-D-norleucyl)-N-(thieno[3,2-c]pyridin-2-ylmethyl)piperazine-2-carboxamide] it is 15 nM.

Regarding `NCc1ccc(OC(=O)N2CCN(C(=O)[C@@H](CC3CCCCC3)NC3CCC4(CC3)CCN(Cc3ccccc3)C4)[C@H](C(=O)NCc3cccs3)C2)c2ccccc12` (stereo partly drawn) [Example 59, 4-(aminomethyl)naphthalen-1-yl (3S)-4-[N-(2-benzyl-2-azaspiro[4.5]dec-8-yl)-3-cyclohexyl-D-alanyl]-3-[(thiophen-2-ylmethyl)carbamoyl]piperazine-1-carboxylate], the IC50 is 4.6 nM.
